Data as given in US11700853B2, “Plant health compositions comprising a water-soluble pesticide and a water-insoluble agrochemical” (priority 2010, dated 2023).
Converted amounts (≈) assume the structure as drawn.

Legend:
[1] = at 20° C.; cited from earlier work
[2] = Dissolution in surfactants at 20% w/v on heating in a water bath, then cooling to room temperature; settings: for Dissolution temp.: temperature at which the mixture cleared
[3] = Dissolution/melting temperature in surfactants by differential scanning calorimetry (DSC); settings: for effect of surfactants on dissolution/melting temperature: cationic, nonionic and anionic surfactants tested, compared to absence of a surfactant
[4] = 20% w/v in AGM-550, cooled to 20-25° C. after 45 ° C.
[5] = 20% w/v in Ethomeen T/15, cooled to 20-25° C. after 50 ° C.
[6] = 20% w/v in Ethomeen T/15 at 45 ° C.
[7] = 20% w/v in Ethomeen T/15 at 50 ° C.
[8] = 20% w/v in coco quaternary amine 2 EO (Ethoquad C/12)
[9] = 20% w/v in cocoamine 2EO (Ethomeen C/12)

anilofos
water solubility (Solub.) [1]: 13.6 µg/mL

CCOP(=S)(OCC)Oc1ccc(=O)n(-c2ccccc2)n1 [pyridaphenthion]
water solubility (Solub.) [1]: 55.2 µg/mL (≈ 162 µM)

C=CCOC(Cn1ccnc1)c1ccc(Cl)cc1Cl (stereo not drawn) [imazalil]
water solubility (Solub.) [1]: 0.1 µg/mL (≈ 0.336 µM)

CCOC(=O)C(C)Oc1ccc(Oc2ncc(C(F)(F)F)cc2Cl)cc1 (stereo not drawn) [haloxyfop-ethyl]
water solubility (Solub.) [1]: 0.6 µg/mL (≈ 1.54 µM)

CO/C=C(/C(=O)OC)c1ccccc1COc1cccc(C(F)(F)F)n1 [picoxystrobin]
water solubility (Solub.) [1]: 3.1 µg/mL (≈ 8.44 µM)

CC(C)(C)C(O)(CCc1ccc(Cl)cc1)Cn1cncn1 (stereo not drawn) [tebuconazole]
Observation at room temp. [2, 4]: Dissolved
Dissolution temp. ([2]; 20% w/v in AGM-550): 45 °C
Observation ([2]; 20% w/v in AGM-550 at 45 ° C.): Dissolved
Observation at room temp. ([2]; 20% w/v in Armeen APA 9, cooled to 20-25° C. after 40 ° C.): Dissolved
Dissolution temp. ([2]; 20% w/v in Armeen APA 9): 40 °C
Observation ([2]; 20% w/v in Armeen APA 9 at 40 ° C.): Dissolved
Observation at room temp. ([2]; 20% w/v in Ethomeen C/12, cooled to 20-25° C. after 45 ° C.): Dissolved
Observation ([2]; 20% w/v in Ethomeen C/12 at 45 ° C.): Dissolved
Observation at room temp. [2, 5]: Dissolved
Dissolution temp. ([2]; 20% w/v in Ethomeen T/15): 50 °C
Observation [2, 6]: Not Dissolved
Observation [2, 7]: Dissolved
Observation at room temp. ([2]; 20% w/v in Ethoquad C/12, cooled to 20-25° C. after 45 ° C.): Dissolved
Observation ([2]; 20% w/v in Ethoquad C/12 at 45 ° C.): Dissolved
Observation at room temp. ([2]; 20% w/v in Surfonic L24-9, cooled to 20-25° C. after 50 ° C.): Dissolved
Dissolution temp. ([2]; 20% w/v in Surfonic L24-9): 50 °C
Observation ([2]; 20% w/v in Surfonic L24-9 at 45 ° C.): Not Dissolved
Observation ([2]; 20% w/v in Surfonic L24-9 at 50 ° C.): Dissolved
Observation ([2]; 20% w/v in alkylamine oxide at 45 ° C.): Dissolved
Observation at room temp. ([2]; 20% w/v in alkylamine oxide, cooled to 20-25° C. after 45 ° C.): Dissolved
Dissolution temp. ([2]; 20% w/v in alkylamine oxide): 45 °C
Dissolution temp. [2, 8]: 45 °C
Dissolution temp. [2, 9]: 45 °C
melting/dissolution point ([3]; 40 wt % in ethoxylated cocoamine (2EO) surfactant, FIG. 14): 71 °C
melting/dissolution point ([3]; 65 wt % in ethoxylated cocoamine (2EO) surfactant, FIG. 14): 91 °C
dissolution/melting point, rank among surfactants tested ([3]; amidopropylamine surfactant): lowest
effect of surfactants on dissolution/melting temperature [3]: reduced

CCOC(=O)NCCOc1ccc(Oc2ccccc2)cc1 [fenoxycarb]
water solubility (Solub.) [1]: 7.9 µg/mL (≈ 26.2 µM)

CC1CN(C2CCCCCCCCCCC2)CC(C)O1 (stereo not drawn) [dodemorph]
water solubility (Solub.) [1]: <100 µg/mL

C#CCOc1ccc(CCNC(=O)C(OCC#C)c2ccc(Cl)cc2)cc1OC (stereo not drawn) [mandipropamid]
water solubility (Solub.) [1]: 4.2 µg/mL (≈ 10.2 µM)

CCOCOc1ccc(C(=O)Nc2cccc(Cl)c2Cl)cc1 [etobenzanid]
water solubility (Solub.) [1]: 0.9 µg/mL (≈ 2.65 µM)

CCOC(=O)C1=NN(c2ccc(Cl)cc2Cl)C(C)(C(=O)OCC)C1 (stereo not drawn) [mefenpyr-diethyl]
water solubility (Solub.) [1]: 20 µg/mL (≈ 53.6 µM)

CCC(Oc1ccc(F)c(C(F)(F)F)c1)C(=O)NCc1ccccc1 (stereo not drawn) [beflubutamid]
water solubility (Solub.) [1]: 3.3 µg/mL (≈ 9.29 µM)

butafenamid
water solubility (Solub.) [1]: 3.3 µg/mL

CC(Oc1ccc(Cl)cc1Cl)C(=O)NC(C)(C#N)C(C)C (stereo not drawn) [fenoxanil]
water solubility (Solub.) [1]: 30.7 µg/mL (≈ 93.2 µM)

CCC(C)c1cc([N+](=O)[O-])cc([N+](=O)[O-])c1OC(=O)OC(C)C (stereo not drawn) [dinobuton]
water solubility (Solub.) [1]: 0.1 µg/mL (≈ 0.306 µM)

COP(=O)(OC)O/C(=C\Cl)c1ccc(Cl)cc1Cl [dimethylvinphos]
water solubility (Solub.) [1]: 0.13 µg/mL (≈ 0.392 µM)

CCOC(=O)[C@@H](C)Oc1ccc(Oc2cnc3cc(Cl)ccc3n2)cc1 [quizalofop-P-ethyl]
Observation at room temp. [2, 4]: Dissolved
Dissolution temp. ([2]; 20% w/v in AGM-550): 45 °C
Observation ([2]; 20% w/v in AGM-550 at 45 ° C.): Dissolved
Observation at room temp. ([2]; 20% w/v in Armeen APA 9, cooled to 20-25° C. after 50 ° C.): Dissolved
Dissolution temp. ([2]; 20% w/v in Armeen APA 9): 50 °C
Observation ([2]; 20% w/v in Armeen APA 9 at 45 ° C.): Not Dissolved
Observation ([2]; 20% w/v in Armeen APA 9 at 50 ° C.): Dissolved
Observation at room temp. ([2]; 20% w/v in Ethomeen C/12, cooled to 20-25° C. after 55 ° C.): Dissolved
Observation at room temp. ([2]; 20% w/v in Ethomeen C/12, cooled to 20-25° C. after 65 ° C.): Dissolved
Observation ([2]; 20% w/v in Ethomeen C/12 at 50 ° C.): Not Dissolved
Observation ([2]; 20% w/v in Ethomeen C/12 at 55 ° C.): Dissolved
Observation ([2]; 20% w/v in Ethomeen C/12 at 65 ° C.): Dissolved
Observation at room temp. [2, 5]: Dissolved
Dissolution temp. ([2]; 20% w/v in Ethomeen T/15): 50 °C
Observation [2, 6]: Not Dissolved
Observation [2, 7]: Dissolved
Observation at room temp. ([2]; 20% w/v in Ethoquad C/12, cooled to 20-25° C. after 65 ° C.): Dissolved
Observation ([2]; 20% w/v in Ethoquad C/12 at 55 ° C.): Not Dissolved
Observation ([2]; 20% w/v in Ethoquad C/12 at 65 ° C.): Dissolved
Observation ([2]; 20% w/v in alkylamine oxide at 60 ° C.): Dissolved
Observation at room temp. ([2]; 20% w/v in alkylamine oxide, cooled to 20-25° C. after 60 ° C.): Dissolved
Dissolution temp. ([2]; 20% w/v in alkylamine oxide): 60 °C
Dissolution temp. [2, 8]: 65 °C
Dissolution temp. [2, 9]: 55 °C
melting/dissolution point ([3]; 40 wt % in C6-9 amidopropyl dimethylamine surfactant (ARMEEN APA 9), FIG. 16): 63 °C
melting/dissolution point ([3]; 65 wt % in C6-9 amidopropyl dimethylamine surfactant (ARMEEN APA 9), FIG. 16): 69 °C
effect of surfactants on dissolution/melting temperature [3]: reduced

CCOC(=O)C(C)Oc1ccc(Oc2nc3ccc(Cl)cc3o2)cc1 (stereo not drawn) [fenoxaprop-ethyl]
water solubility (Solub.) [1]: 0.9 µg/mL (≈ 2.49 µM)

CC(=O)O.CC1CN(C2CCCCCCCCCCC2)CC(C)O1 (stereo not drawn) [dedemorph acetate]
water solubility (Solub.) [1]: 736 µg/mL

CCOC(=O)[C@@H](C)Oc1ccc(Oc2nc3ccc(Cl)cc3o2)cc1 [fenoxaprop-P-ethyl]
water solubility (Solub.) [1]: 0.7 µg/mL (≈ 1.93 µM)

CCCCCOC(=O)COc1cc(N2C(=O)C3=C(CCCC3)C2=O)c(F)cc1Cl [flumiclorac-pentyl]
water solubility (Solub.) [1]: 0.2 µg/mL (≈ 0.472 µM)

Cc1ccc(N(SC(F)(Cl)Cl)S(=O)(=O)N(C)C)cc1 [tolyfluanid]
water solubility (Solub.) [1]: 0.9 µg/mL (≈ 2.59 µM)

COP(=S)(OC)Oc1c(Cl)cc(C)cc1Cl [tolclofos-methyl]
water solubility (Solub.) [1]: 1.1 µg/mL (≈ 3.65 µM)

C=CCNC(=O)c1c([Si](C)(C)C)sc(C)c1C [silithiofam]
water solubility (Solub.) [1]: 39.9 µg/mL (≈ 149 µM)

CC(C)(C)C(=O)C(Oc1ccc(Cl)cc1)n1cncn1 (stereo not drawn) [triadimefon]
water solubility (Solub.) [1]: 64 µg/mL (≈ 218 µM)

beta-cypermemethrin
water solubility (Solub.) [1]: 51.5 µg/mL
